Reference: US20140309244A1, “NOVEL MICROBIOCIDES” (SYNGENTA PARTICIPATIONS AG, priority 2010, published 2014)

Key:
[1] = system: Puccinia recondita f. sp. tritici; assay: Puccinia recondita f. sp. tritici / wheat / leaf disc curative (brown rust); format: in vivo; conditions: foliar, wheat cv Kanzler leaf segments, applied 1 day after inoculation, assessed 6-8 days after application, read-out: control of Puccinia recondita f. sp. tritici (percent disease control compared to untreated)
Experimental: Puccinia recondita f. sp. tritici/Wheat/Leaf Disc Curative (Brown Rust): Wheat leaf segments cv Kanzler were placed on agar in 24-well plates. The leaf segments were inoculated with a spore suspension of the fungus. The plates were stored in darkness at 19° C. and 75% relative humidity. The formulated test compound diluted in water was applied at an application rate of 200 ppm 1 day after inoculation.

Pyrenophora teres = Pyrenophora teres / barley / leaf disc preventative (net blotch); format: in vivo; conditions: foliar, barley cv Hasso leaf segments, inoculated two days after application, assessed 5-7 days after application, read-out: control of Pyrenophora teres (disease control compared to untreated)
[2] = system: Phaeosphaeria nodorum (Septoria nodorum); assay: Phaeosphaeria nodorum (Septoria nodorum) / wheat / leaf disc preventative (glume blotch); format: in vivo; conditions: Parastagonospora nodorum, foliar, wheat cv Kanzler leaf segments, inoculated 2 days after application, assessed 5-7 days after application, read-out: control of Phaeosphaeria nodorum (percent disease control compared to untreated)
[3] = system: Puccinia recondita f. sp. tritici; assay: Puccinia recondita f. sp. tritici / wheat / leaf disc preventative (brown rust); format: in vivo; conditions: foliar, wheat cv Kanzler leaf segments, inoculated 1 day after application, assessed 7-9 days after application, read-out: control of Puccinia recondita f. sp. tritici (percent disease control compared to untreated)
Experimental: Puccinia recondita f. sp. tritici/Wheat/Leaf Disc Preventative (Brown Rust) Wheat leaf segments cultivated variety (cv) Kanzler were placed on agar in 24-well plates and sprayed with formulated test compound diluted in water at an application rate of 200 ppm. The leaf disks were inoculated with a spore suspension of the fungus 1 day after application. The inoculated leaf segments were incubated at 19° C. and 75% relative humidity under a light regime of 12/12 h (light/dark) in a climate cabinet and the activity of a compound was assessed as percent disease control compared to untreated when an appropriate level of disease damage appears in untreated check leaf segments (7-9 days after application). […].103

[4] = system: Mycosphaerella graminicola (Septoria tritici); assay: Mycosphaerella graminicola (Septoria tritici) / liquid culture (Septoria blotch); format: cell-based; conditions: Zymoseptoria tritici, PDB potato dextrose broth, 96-well plate, 24° C., 4-5 days after application, read-out: control of Mycosphaerella graminicola (inhibition of growth, photometric)
[5] = system: Monographella nivalis (Microdochium nivale); assay: Monographella nivalis (Microdochium nivale) / liquid culture (foot rot cereals); format: cell-based; conditions: PDB potato dextrose broth, 96-well plate, 24° C., 4-5 days after application, read-out: control of Monographella nivalis (inhibition of growth, photometric)
Experimental: Monographella nivalis (Microdochium nivale)/Liquid Culture (Foot Rot Cereals): Conidia of the fungus from cryogenic storage were directly mixed into nutrient broth (PDB potato dextrose broth). After placing a DMSO solution of test compound into a 96-well microtiter plate at an application rate of 200 ppm, the nutrient broth containing the fungal spores was added. The test plates were incubated at 24° C. and the inhibition of growth was determined photometrically 4-5 days after application. […].103

[6] = system: Blumeria graminis f. sp. tritici (Erysiphe graminis f. sp. tritici); assay: Blumeria graminis f. sp. tritici (Erysiphe graminis f. sp. tritici) / wheat / leaf disc preventative (powdery mildew on wheat); format: in vivo; conditions: foliar, wheat cv. Kanzler leaf segments, inoculated 1 day after application, assessed 6-8 days after application, read-out: control of Blumeria graminis (percent disease control compared to untreated)
[7] = system: Mycosphaerella arachidis (Cercospora arachidicola); assay: Mycosphaerella arachidis (Cercospora arachidicola) / liquid culture (early leaf spot); format: cell-based; conditions: PDB potato dextrose broth, 96-well plate, 24° C., 4-5 days after application, read-out: control of Mycosphaerella arachidis (inhibition of growth, photometric)
[8] = system: Thanatephorus cucumeris (Rhizoctonia solani); assay: Thanatephorus cucumeris (Rhizoctonia solani) / liquid culture (foot rot, damping-off); format: cell-based; conditions: liquid culture of mycelia fragments, PDB potato dextrose broth, 96-well plate, 24° C., 3-4 days after application, read-out: control of Thanatephorus cucumeris (inhibition of growth, photometric)
Experimental: Thanatephorus cucumeris (Rhizoctonia solani)/Liquid Culture (Foot Rot, Damping-Off): Mycelia fragments of a newly grown liquid culture of the fungus are directly mixed into nutrient broth (PDB potato dextrose broth). After placing a DMSO solution of the test compounds into a 96-well microtiter plate at an application rate of 200 ppm, the nutrient broth containing the fungal material was added. The test plates were incubated at 24° C. and the inhibition of growth was determined photometrically 3-4 days after application.

[9] = system: Botryotinia fuckeliana (Botrytis cinerea); assay: Botryotinia fuckeliana (Botrytis cinerea) / liquid culture (gray mould); format: cell-based; conditions: Vogels broth, 96-well plate, 24° C., 3-4 days after application, read-out: control of Botryotinia fuckeliana (inhibition of growth, photometric)
[10] = system: Glomerella lagenarium (Colletotrichum lagenarium); assay: Glomerella lagenarium (Colletotrichum lagenarium) / liquid culture (anthracnose); format: cell-based; conditions: Colletotrichum orbiculare, PDB potato dextrose broth, 96-well plate, 24° C., 3-4 days after application, read-out: control of Glomerella lagenarium (inhibition of growth, photometric)
Gaeumannomyces graminis = Gaeumannomyces graminis / liquid culture (take-all of cereals); format: cell-based; conditions: liquid culture of mycelial fragments, PDB potato dextrose broth, 96-well plate, 24° C., 4-5 days after application, read-out: control of Gaeumannomyces graminis (inhibition of growth, photometric)
[11] = system: Magnaporthe grisea (Pyricularia oryzae); assay: whole plant or invertebrate; format: in vivo; conditions: foliar, read-out: control of Magnaporthe grisea (percent disease control compared to untreated)

CCC(CO/N=C(\C)c1cccc(C)n1)Cc1cccc(/C(C)=N/OC)n1 (stereo not drawn) [P.04]
≥ 80%: pest or weed control at 200 ppm [1] | pest or weed control at 200 ppm (Pyrenophora teres) | pest or weed control at 200 ppm [2] | pest or weed control at 200 ppm [3] | inhibition at 200 ppm [4] | inhibition at 200 ppm [5] | pest or weed control at 200 ppm [6] | inhibition at 200 ppm [7] | inhibition at 200 ppm [8] | inhibition at 200 ppm [9] | inhibition at 200 ppm [10] | inhibition at 200 ppm (Gaeumannomyces graminis)

CO/N=C(\C)c1cccc(CCCO/N=C(\C)c2cc(C)cc(C)n2)n1 [P.10]
≥ 80%: pest or weed control at 200 ppm [1] | pest or weed control at 200 ppm (Pyrenophora teres) | pest or weed control at 200 ppm [2] | pest or weed control at 200 ppm [3] | inhibition at 200 ppm [4] | inhibition at 200 ppm [5] | pest or weed control at 200 ppm [6] | inhibition at 200 ppm [7] | inhibition at 200 ppm [8] | inhibition at 200 ppm [9] | inhibition at 200 ppm [10] | inhibition at 200 ppm (Gaeumannomyces graminis)

CO/N=C(\C)c1cccc(CCCO/N=C(\C)c2cccc(C)n2)n1 [P.12]
≥ 80%: pest or weed control at 200 ppm [1] | pest or weed control at 200 ppm (Pyrenophora teres) | pest or weed control at 200 ppm [2] | pest or weed control at 200 ppm [3] | inhibition at 200 ppm [4] | inhibition at 200 ppm [5] | pest or weed control at 200 ppm [6] | inhibition at 200 ppm [7] | inhibition at 200 ppm [8] | inhibition at 200 ppm [9] | inhibition at 200 ppm [10] | inhibition at 200 ppm (Gaeumannomyces graminis)

CON=C(c1ccccc1)c1cccc(CCCO/N=C(\C)c2cccc(C)n2)n1 [P.24]
≥ 80%: pest or weed control at 200 ppm [1] | pest or weed control at 200 ppm (Pyrenophora teres) | pest or weed control at 200 ppm [2] | pest or weed control at 200 ppm [3] | inhibition at 200 ppm [4] | inhibition at 200 ppm [5] | pest or weed control at 200 ppm [6] | inhibition at 200 ppm [7] | inhibition at 200 ppm [8] | inhibition at 200 ppm [9] | inhibition at 200 ppm [10] | inhibition at 200 ppm (Gaeumannomyces graminis)

CO/N=C(\C)c1cccc(CCCO/N=C(\C)c2nc(C)cc(C)n2)n1 [P.62, 1-(6-(3-[1-(4,6-dimethyl-pyrimidin-2-yl)-eth-(E)-ylideneaminooxy]-propyl)-pyridin-2-yl)-ethanone O-methyl oxime]
≥ 80%: pest or weed control at 200 ppm [1] | pest or weed control at 200 ppm [11] | inhibition at 200 ppm [4] | inhibition at 200 ppm [7] | inhibition at 200 ppm [8] | inhibition at 200 ppm [9]

CO/N=C(\C)c1cccc(CCCO/N=C2\CCCc3c2nc2ncccc2c3C)n1 [P.72]
≥ 80%: pest or weed control at 200 ppm [1] | pest or weed control at 200 ppm [11] | pest or weed control at 200 ppm (Pyrenophora teres) | pest or weed control at 200 ppm [2] | pest or weed control at 200 ppm [3] | inhibition at 200 ppm [4] | pest or weed control at 200 ppm [6] | inhibition at 200 ppm [9] | inhibition at 200 ppm [10]

C=CCOCCCc1cccc(/C(C)=N/OCCCc2cccc(/C(C)=N/OC)n2)n1 [P.74]
≥ 80%: pest or weed control at 200 ppm [11] | pest or weed control at 200 ppm (Pyrenophora teres) | pest or weed control at 200 ppm [2] | inhibition at 200 ppm [4] | inhibition at 200 ppm [5] | pest or weed control at 200 ppm [6] | inhibition at 200 ppm [7] | inhibition at 200 ppm [9] | inhibition at 200 ppm (Gaeumannomyces graminis)

COCCCc1cccc(/C(C)=N/OCCCc2cccc(/C(C)=N/OC)n2)n1 [P.76]
≥ 80%: pest or weed control at 200 ppm [11] | pest or weed control at 200 ppm (Pyrenophora teres) | pest or weed control at 200 ppm [2] | inhibition at 200 ppm [4] | inhibition at 200 ppm [5] | inhibition at 200 ppm [7] | inhibition at 200 ppm [9] | inhibition at 200 ppm [10] | inhibition at 200 ppm (Gaeumannomyces graminis)

CO/N=C(\C)c1cccc(CCCO/N=C2\CCCc3c2nc2cc(OC)c(OC)cc2c3C)n1 [P.82]
≥ 80%: pest or weed control at 200 ppm [11] | pest or weed control at 200 ppm (Pyrenophora teres) | pest or weed control at 200 ppm [2] | inhibition at 200 ppm [4] | inhibition at 200 ppm [5] | pest or weed control at 200 ppm [6] | inhibition at 200 ppm [7] | inhibition at 200 ppm [8] | inhibition at 200 ppm [9] | inhibition at 200 ppm [10]

CO/N=C(\C)c1cccc(CCCO/N=C2\CCCc3c2nc2ccsc2c3C)n1 [P.88]
≥ 80%: pest or weed control at 200 ppm [1] | pest or weed control at 200 ppm [11] | pest or weed control at 200 ppm (Pyrenophora teres) | pest or weed control at 200 ppm [2] | pest or weed control at 200 ppm [3] | inhibition at 200 ppm [4] | inhibition at 200 ppm [5] | pest or weed control at 200 ppm [6] | inhibition at 200 ppm [7] | inhibition at 200 ppm [8] | inhibition at 200 ppm [9] | inhibition at 200 ppm [10]

CO/N=C(\C)c1cccc(CCCO/N=C2\CCCc3c2nc2ccc(Cl)cc2c3C)n1 [P.91]
≥ 80%: pest or weed control at 200 ppm [11] | pest or weed control at 200 ppm [2] | pest or weed control at 200 ppm [3] | inhibition at 200 ppm [4] | inhibition at 200 ppm [5] | pest or weed control at 200 ppm [6] | inhibition at 200 ppm [7] | inhibition at 200 ppm [8] | inhibition at 200 ppm [9] | inhibition at 200 ppm [10]

CCc1c2c(nc3ccccc13)/C(=N/OCCCc1cccc(/C(C)=N/OC)n1)CCC2 [P.92]
≥ 80%: pest or weed control at 200 ppm [1] | pest or weed control at 200 ppm [11] | pest or weed control at 200 ppm (Pyrenophora teres) | pest or weed control at 200 ppm [2] | pest or weed control at 200 ppm [3] | inhibition at 200 ppm [4] | inhibition at 200 ppm [5] | pest or weed control at 200 ppm [6] | inhibition at 200 ppm [7] | inhibition at 200 ppm [8] | inhibition at 200 ppm [9] | inhibition at 200 ppm [10]

CO/N=C(\C)c1cccc(CCCO/N=C2\CCCc3cc4cc(Cl)ccc4nc32)n1 [P.96]
≥ 80%: pest or weed control at 200 ppm [11] | pest or weed control at 200 ppm (Pyrenophora teres) | pest or weed control at 200 ppm [2] | inhibition at 200 ppm [4] | inhibition at 200 ppm [5] | pest or weed control at 200 ppm [6] | inhibition at 200 ppm [7] | inhibition at 200 ppm [8] | inhibition at 200 ppm [9] | inhibition at 200 ppm [10] | inhibition at 200 ppm (Gaeumannomyces graminis)

CO/N=C(\C)c1cccc(CCCO/N=C2\CCCc3c2nc2ccccc2c3C2CC2)n1 [P.97]
≥ 80%: pest or weed control at 200 ppm [1] | pest or weed control at 200 ppm [11] | pest or weed control at 200 ppm (Pyrenophora teres) | pest or weed control at 200 ppm [2] | pest or weed control at 200 ppm [3] | inhibition at 200 ppm [4] | inhibition at 200 ppm [5] | pest or weed control at 200 ppm [6] | inhibition at 200 ppm [7] | inhibition at 200 ppm [9] | inhibition at 200 ppm [10]
